Here are results for one compound from patent US20250092035A1, “ISOCITRATE DEHYDROGENASE 1 INHIBITORS AND METHODS OF USE THEREOF” (THE WISTAR INSTITUTE OF ANATOMY AND BIOLOGY, priority 2022, published 2025).

The subject of data set [1] is HCT116 xenografts.
Data set [2] has as its target T1, IDH1 protein in MiaPaCa-2 PC cells (Homo sapiens, UniProt O75874).
T1 construct: endogenous in cells; host or cells: MiaPaCa-2 pancreatic cancer cells
As to the kind of experiment: Cellular thermal shift assay. The settings on record: 1 μM. The class given is cell-based. How it is done:
Cellular Thermal Shift assay. Thermal shift experiments were performed as previously described (72). Briefly, cells were cultured in media containing the indicated experimental concentrations of MgSO4 under standard conditions (25 mM glucose, 4 mM glutamine and 10% FBS) for 24 hours. […] Cells were then trypsinized, washed with PBS, suspended in PBS (containing protease inhibitors), lysed through three freeze-thaw cycles at liquid nitrogen−37° C., and then heated at the indicated temperatures for three minutes. Preparations were spun down at 13,000 rpm for 10 min at 4° C. to remove denatured proteins, and supernatants were loaded on a Western blot gel. Western blots were performed as described.

Data set [3] has as its system HCT116 cells. As to the kind of experiment: Clonogenic growth of colon cancer cells. The data set is classed as cell-based, human. The settings on record: low Mg2+ and glucose. How it is done:
Clonogenic assay. 1000-2000 cells per well were plated in six-well plates. Media was not changed during experiments unless indicated. […] Upon completion of the experiments, colonies were fixed in a reagent containing 80% methanol and stained with 0.5% crystal violet. To determine relative growth, dye was extracted from stained colonies with 10% acetic acid and the associated absorbance measured at 600 nm using a Microplate Reader (GloMax Explorer system, Promega).

Data set [4] relates to PC cells. Put plainly: Oxygen consumption rate (Seahorse). The data set is classed as cell-based, human. How it is done: Cell bioenergetic assays. Oxygen consumption rates (OCR) and extracellular acidification rates (ECAR) were measured using the Seahorse XFp Extracellular Flux Analyzer (Seahorse Bioscience) according to the manufacturer's instructions. For OCR experiments, cells were cultured in 4 mM glutamine, 5% FBS, and the indicated glucose levels for 24-36 hours. Mitochondrial membrane potential was measured with TMRE staining (Invitrogen, T669) according to the manufacturer's instructions. […] NADPH (abcam, ab65349), GSH/GSSG ratio (Promega, V6611), and ATP (abcam, 83355) measurements were performed according to the manufacturer's instructions. All readouts were normalized to cell number.

The test system of data set [5] is murine PC models. As to the kind of experiment: KPC and tamoxifen-inducible KP−/−C mouse models. The class given is in vivo. Particulars: two difficult-to-treat murine PC models.
Source text: In vivo studies. […] Mice were maintained under pathogen-free conditions in the animal facility. No additional food or nutrient-contained bedding provided to the animals during these studies. […] Mice on a mixed background were bred in-house at the CRUK Beatson Institute and maintained in conventional caging with environmental enrichment, access to standard chow and water ad libitum. […] Mice were monitored 3 times weekly and when a diagnosis of pancreatic cancer was made by abdominal palpation, this was confirmed by high-resolution ultrasound imaging, using the VisualSonics Vevo 3100 preclinical imaging platform (FUJIFILM VisualSonics, Toronto, Canada). Anesthesia was induced and maintained with a mixture of isoflurane and medical air. Mice were imaged weekly to monitor tumor progression and tumor volume was assessed for each mouse and plotted longitudinally. […] Tamoxifen dissolved in corn oil at 20 mg/ml, and animals received tamoxifen (75 mg/kg, IP administration, once daily) for six consecutive days. For flank xenograft experiments, 1×10^6 cells were suspended in 200 μL of a PBS:matrigel solution (1:1) and injected subcutaneously into the right flank of mice. […] For all flank xenograft experiments, tumor volumes were measured twice per week using a caliper (volume=length×width^2/2). […] Body weights were measured once weekly for the indicated time. […]
The subject of data set [6] is murine PC cells (KPC K8484). As to the kind of experiment: IDH1 activity and clonogenic growth in murine PC cells. The data set is classed as cell-based, mouse.
Procedure: IDH activity assay. […] The reaction measures the activity of both IDH1 and IDH2 isoenzymes. IDH1 activity is specifically measured using the same assay after transient siRNA silencing of IDH2 (Extended Data FIG. 6i). […] All readouts were normalized to cell number. […] Formation of NADPH was measured over 40 min at 5 min intervals.
The test system of data set [7] is MiaPaCa-2 cells. The settings on record: PC cells.
Data set [8] has as its target IDH1 (Homo sapiens, UniProt O75874). As to the kind of experiment: Cell-free wtIDH1 activity (fluorometric NADPH). The settings on record: Mg2+ reduced to 0.1 mM. The class given is biochemical. Further details: purchased RD systems. How it is done: (§1) IDH activity assay. Cell-based wtIDH activity is measured by quantitation of IDH-dependent NADPH synthesis (Abcam, ab 102528). The reaction measures the activity of both IDH1 and IDH2 isoenzymes. IDH1 activity is specifically measured using the same assay after transient siRNA silencing of IDH2 (Extended Data FIG. 6i). The opposite approach is used to estimate IDH2 activity. All readouts were normalized to cell number. Cell-free wtIDH1 activity was performed by a fluorometric assay measuring NADPH levels at 355/460 nm. The assay contained 0.25 nM human recombinant IDH1 (RD systems), 30 μM isocitrate, and 30 μM NADP^+ in 20 μL of 100 mM Tris-HCL, pH8, 0.2 mM DTT, 0.05% CHAPS, and MgCl2 at the indicated levels. Formation of NADPH was measured over 40 min at 5 min intervals.

The test system of data set [9] is KPC allografts. As to the kind of experiment: Subcutaneous KPC allografts in nude mice. Particulars: flanks of nude mice. The class given is in vivo, mouse.
Procedure: (§2) In vivo studies. […] Mice were maintained under pathogen-free conditions in the animal facility. No additional food or nutrient-contained bedding provided to the animals during these studies. […] Mice with subcutaneous PDX were purchased from The Jackson Laboratory (#TM01212). […] For flank xenograft experiments, 1×10^6 cells were suspended in 200 μL of a PBS:matrigel solution (1:1) and injected subcutaneously into the right flank of mice. […] Equal number of male and female mice were used. […] For the indicated experiments, hyperglycemia was induced by allowing mice to drink high glucose content water (30% dextrose; abbreviated as D30 water) starting two weeks before cancer cell implantation. […] An equal volume of vehicle was administrated to control mice. NAC water (1.2 g/L) was refreshed twice weekly for the indicated experiments. A high magnesium diet, magnesium sulfate water (MgSO4, 1.5 g/L) was used for the indicated experiments. For all flank xenograft experiments, tumor volumes were measured twice per week using a caliper (volume=length×width^2/2). Upon termination of animal experiments, mice were euthanized using carbon dioxide inhalation followed by cervical dislocation, and tumors were harvested. Body weights were measured once weekly for the indicated time.
The subject of data set [10] is wtIDH1 pancreatic cancer (MiaPaCa-2, PANC-1, PDX TM01212). As to the kind of experiment: Human PC xenografts and PDX in nude mice. On the technique in general: A xenograft is tissue or cells of one species grown in another, often human tumour cells in immunodeficient mice.
Procedure: as §2
Data set [11] addresses T2, wtIDH2 (Homo sapiens, UniProt P48735).
T2 construct: endogenous in cells; host or cells: MiaPaCa-2 pancreatic cancer cells (IDH1 silenced by siRNA)
T2 sequence (P48735 40-452): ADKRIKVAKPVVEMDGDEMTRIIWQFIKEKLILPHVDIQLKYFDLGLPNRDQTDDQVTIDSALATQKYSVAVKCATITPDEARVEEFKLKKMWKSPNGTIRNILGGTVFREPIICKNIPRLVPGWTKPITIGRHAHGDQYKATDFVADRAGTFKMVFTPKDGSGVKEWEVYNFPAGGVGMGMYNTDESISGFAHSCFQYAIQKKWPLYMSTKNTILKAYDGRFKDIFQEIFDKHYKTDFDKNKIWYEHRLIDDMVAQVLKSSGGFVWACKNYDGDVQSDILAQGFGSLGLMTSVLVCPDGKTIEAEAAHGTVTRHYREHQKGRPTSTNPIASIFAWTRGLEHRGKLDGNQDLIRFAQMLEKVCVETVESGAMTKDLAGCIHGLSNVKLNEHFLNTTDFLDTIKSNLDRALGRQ
Put plainly: Cell-based IDH2 activity in MiaPaCa-2 PC cells. Here is the method:
as §1

T1 sequence (O75874 2-414 limits assumed): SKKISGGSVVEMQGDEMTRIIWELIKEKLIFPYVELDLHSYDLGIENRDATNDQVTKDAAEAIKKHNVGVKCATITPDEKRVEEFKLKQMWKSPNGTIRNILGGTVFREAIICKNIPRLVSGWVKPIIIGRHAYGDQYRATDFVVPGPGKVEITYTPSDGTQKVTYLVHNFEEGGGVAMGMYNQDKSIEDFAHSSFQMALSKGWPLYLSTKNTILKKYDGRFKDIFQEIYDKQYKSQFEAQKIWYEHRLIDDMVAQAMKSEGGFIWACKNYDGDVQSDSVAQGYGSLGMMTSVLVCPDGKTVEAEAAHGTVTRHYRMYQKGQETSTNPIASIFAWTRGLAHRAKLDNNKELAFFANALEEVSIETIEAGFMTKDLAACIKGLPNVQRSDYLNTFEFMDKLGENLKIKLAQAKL
Sequence of IDH1 (O75874 whole entry): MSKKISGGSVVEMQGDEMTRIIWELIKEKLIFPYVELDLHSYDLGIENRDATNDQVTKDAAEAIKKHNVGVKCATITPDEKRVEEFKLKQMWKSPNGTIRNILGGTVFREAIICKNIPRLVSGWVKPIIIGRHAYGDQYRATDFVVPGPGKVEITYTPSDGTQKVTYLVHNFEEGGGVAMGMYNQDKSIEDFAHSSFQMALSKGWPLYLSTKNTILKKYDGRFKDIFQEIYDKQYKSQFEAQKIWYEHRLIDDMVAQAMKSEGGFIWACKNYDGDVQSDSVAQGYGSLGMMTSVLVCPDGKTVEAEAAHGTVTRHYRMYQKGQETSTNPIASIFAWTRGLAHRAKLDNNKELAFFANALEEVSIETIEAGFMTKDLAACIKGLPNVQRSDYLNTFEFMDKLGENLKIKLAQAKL

Consider `N#Cc1ccnc(N2C(=O)CC[C@H]2C(=O)N(c2cncc(F)c2)[C@H](C(=O)NC2CC(F)(F)C2)c2ccccc2Cl)c1` [AG-120, ivosidenib], for which the tolerability entry in data set [1] (female, athymic nude (Foxn1 nu/nu), mouse, in vivo) is “tolerated AG-120 treatment extremely well”; in data set [10] (body weights, nude mice), “tolerated the treatment very well”. Also, the tumor growth result in data set [1] (oral, vs control arm) is given as “significantly diminished tumor growth”. Besides, the figures for the “thermal stabilization of IDH1” value in data set [2] (higher Mg2+ levels) and in data set [2] (low Mg2+ concentrations) were “no effect” and “stabilized the protein”, respectively. In data set [3], the response in culture entry is “responded to the drug”. Moreover, the oxygen consumption entry in data set [4] (low Mg2+ and glucose) is given as “severely impaired oxygen consumption”; in [4] (standard Mg2+ and low glucose), “no effect on oxygen consumption”. Moreover, in data set [5], the “survival and tumor volumes” value is given as “did not reach statistical significance”. For the same compound, the “enzyme activity and cell viability” value in data set [6] (KPC K8484 cells) was “reduced enzyme activity and cell viability”. Besides, the “potency versus oxaliplatin at the same dose” value in data set [6] (nutrient deprivation) is “substantially more potent”. The “combination with chemotherapeutic agents” value in data set [7] is “enhanced the efficacy of chemotherapeutic agents”. Also, in data set [8], the “cell-free wtIDH1 activity inhibition” value was “highly potent”. Also, in data set [9], the allograft growth entry is given as “reduced the growth of KPC allografts”. The anti-tumor efficacy entry in [10] (150 mg/kg orally twice per day, PDX 75 mg/kg IP once daily) was “highly effective as a single agent”. In data set [11], the “inhibitory activity against wtIDH2” value is recorded as “no inhibitory activity”.
